Experimental data taken from US10968462B2, “Plants having increased tolerance to herbicides” (BASF AGRO B.V., priority 2013, dated 2021).

Experiments:
Type in all cases: biochemical, Amaranthus tuberculatum
[1] = target: wild type and amino acid substituted PPO enzyme (PPO2) of SEQ ID NO: 2 (AMARE)
[2] = target: wild type and amino acid substituted PPO enzyme (PPO2) of SEQ ID NO: 2 (AMARE) (Amaranthus tuberculatus, UniProt Q0NZW9, R128A/L397D, form not given)
[3] = target: wild type and amino acid substituted PPO enzyme (PPO2) of SEQ ID NO: 2 (AMARE) (Amaranthus tuberculatus, UniProt Q0NZW9, F204I/F457M, form not given)
[4] = target: wild type and amino acid substituted PPO enzyme (PPO2) of SEQ ID NO: 2 (AMARE) (Amaranthus tuberculatus, UniProt Q0NZW9, F204I/T208S, form not given)
[5] = target: wild type and amino acid substituted PPO enzyme (PPO2) of SEQ ID NO: 2 (AMARE) (Amaranthus tuberculatus, UniProt Q0NZW9, R128L, form not given)

SMILES | IC50 [1] [nM] | IC50 [2] [nM] | IC50 [3] [nM] | IC50 [4] [nM] | IC50 [5] [nM]
C#CCN1C(=O)C(F)(F)Oc2cc(F)c(-n3c(=O)n(C)c(=S)n(C)c3=O)cc21 [1,5-dimethyl-6-thioxo-3-(2,2,7-trifluoro-3-oxo-4-(prop-2-yny] [reference compound] | 246 | 5.9 | 0.0752 | 0.129 | –
CC(C)N(C)S(=O)(=O)NC(=O)c1cc(-n2c(=O)cc(C(F)(F)F)n(C)c2=O)c(F)cc1Cl [Saflufenacil, saflufenacil] | – | – | 0.0189 | 0.0589 | 222
